Laboratory results reported in ChEMBL document CHEMBL5325423, “Discovery of 7H-Pyrrolo[2,3-d]pyrimidine Derivatives as potent hematopoietic progenitor kinase 1 (HPK1) inhibitors” (Eur J Med Chem, 2023).
Values belong to the compound of their own block, whether it stands above or below them.

Key:
[1] = molecular target: T1, Mitogen-activated protein kinase kinase kinase kinase 1 (Homo sapiens, UniProt Q92918); experiment: Inhibition of human HPK1 using myelin basic protein and [gamma33P]ATP as substrate incubated for 40 mins in presence of Mg/ATP by radiometric scintillation counting analysis
T1 sequence (Q92918 whole entry): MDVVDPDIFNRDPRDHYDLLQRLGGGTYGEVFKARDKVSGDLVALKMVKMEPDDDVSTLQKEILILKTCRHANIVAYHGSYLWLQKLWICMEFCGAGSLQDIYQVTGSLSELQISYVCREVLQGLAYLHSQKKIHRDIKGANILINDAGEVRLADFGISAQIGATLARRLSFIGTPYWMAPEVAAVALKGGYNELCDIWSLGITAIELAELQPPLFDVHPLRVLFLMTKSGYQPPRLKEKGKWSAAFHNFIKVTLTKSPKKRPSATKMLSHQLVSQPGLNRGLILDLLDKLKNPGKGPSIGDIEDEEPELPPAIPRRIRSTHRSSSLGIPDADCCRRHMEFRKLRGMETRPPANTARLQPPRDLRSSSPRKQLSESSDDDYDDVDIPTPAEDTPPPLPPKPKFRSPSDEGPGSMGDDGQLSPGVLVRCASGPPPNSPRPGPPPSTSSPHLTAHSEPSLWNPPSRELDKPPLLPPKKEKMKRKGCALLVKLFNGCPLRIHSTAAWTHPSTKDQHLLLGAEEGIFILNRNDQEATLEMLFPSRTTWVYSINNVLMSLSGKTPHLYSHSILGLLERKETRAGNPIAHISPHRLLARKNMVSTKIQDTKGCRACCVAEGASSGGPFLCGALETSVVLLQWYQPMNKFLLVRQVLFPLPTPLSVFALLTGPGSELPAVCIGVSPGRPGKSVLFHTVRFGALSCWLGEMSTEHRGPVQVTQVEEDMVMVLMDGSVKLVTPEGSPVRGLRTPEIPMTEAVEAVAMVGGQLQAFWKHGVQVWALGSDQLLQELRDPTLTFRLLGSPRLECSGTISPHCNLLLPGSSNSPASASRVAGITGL

[2] = molecular target: T1, Mitogen-activated protein kinase kinase kinase kinase 1; experiment: Inhibition of HPK1 (unknown origin)
[3] = molecular target: T1, Mitogen-activated protein kinase kinase kinase kinase 1; experiment: Inhibition of human HPK1 in human Jurkat T cells assessed as inhibition of SLP76 phosphorylation
[4] = molecular target: T1, Mitogen-activated protein kinase kinase kinase kinase 1; experiment: Inhibition of wild type HPK1 (unknown origin) using FAM-FPQAAsLPPYFAKKK peptide as substrate in presence of ATP by caliper assay
[5] = molecular target: ALK tyrosine kinase receptor (Homo sapiens) (UniProt Q9UM73); experiment: Inhibition of ALK (unknown origin) at 1 uM
Sequence of ALK tyrosine kinase receptor (Homo sapiens) (Q9UM73 19-1620 limits assumed): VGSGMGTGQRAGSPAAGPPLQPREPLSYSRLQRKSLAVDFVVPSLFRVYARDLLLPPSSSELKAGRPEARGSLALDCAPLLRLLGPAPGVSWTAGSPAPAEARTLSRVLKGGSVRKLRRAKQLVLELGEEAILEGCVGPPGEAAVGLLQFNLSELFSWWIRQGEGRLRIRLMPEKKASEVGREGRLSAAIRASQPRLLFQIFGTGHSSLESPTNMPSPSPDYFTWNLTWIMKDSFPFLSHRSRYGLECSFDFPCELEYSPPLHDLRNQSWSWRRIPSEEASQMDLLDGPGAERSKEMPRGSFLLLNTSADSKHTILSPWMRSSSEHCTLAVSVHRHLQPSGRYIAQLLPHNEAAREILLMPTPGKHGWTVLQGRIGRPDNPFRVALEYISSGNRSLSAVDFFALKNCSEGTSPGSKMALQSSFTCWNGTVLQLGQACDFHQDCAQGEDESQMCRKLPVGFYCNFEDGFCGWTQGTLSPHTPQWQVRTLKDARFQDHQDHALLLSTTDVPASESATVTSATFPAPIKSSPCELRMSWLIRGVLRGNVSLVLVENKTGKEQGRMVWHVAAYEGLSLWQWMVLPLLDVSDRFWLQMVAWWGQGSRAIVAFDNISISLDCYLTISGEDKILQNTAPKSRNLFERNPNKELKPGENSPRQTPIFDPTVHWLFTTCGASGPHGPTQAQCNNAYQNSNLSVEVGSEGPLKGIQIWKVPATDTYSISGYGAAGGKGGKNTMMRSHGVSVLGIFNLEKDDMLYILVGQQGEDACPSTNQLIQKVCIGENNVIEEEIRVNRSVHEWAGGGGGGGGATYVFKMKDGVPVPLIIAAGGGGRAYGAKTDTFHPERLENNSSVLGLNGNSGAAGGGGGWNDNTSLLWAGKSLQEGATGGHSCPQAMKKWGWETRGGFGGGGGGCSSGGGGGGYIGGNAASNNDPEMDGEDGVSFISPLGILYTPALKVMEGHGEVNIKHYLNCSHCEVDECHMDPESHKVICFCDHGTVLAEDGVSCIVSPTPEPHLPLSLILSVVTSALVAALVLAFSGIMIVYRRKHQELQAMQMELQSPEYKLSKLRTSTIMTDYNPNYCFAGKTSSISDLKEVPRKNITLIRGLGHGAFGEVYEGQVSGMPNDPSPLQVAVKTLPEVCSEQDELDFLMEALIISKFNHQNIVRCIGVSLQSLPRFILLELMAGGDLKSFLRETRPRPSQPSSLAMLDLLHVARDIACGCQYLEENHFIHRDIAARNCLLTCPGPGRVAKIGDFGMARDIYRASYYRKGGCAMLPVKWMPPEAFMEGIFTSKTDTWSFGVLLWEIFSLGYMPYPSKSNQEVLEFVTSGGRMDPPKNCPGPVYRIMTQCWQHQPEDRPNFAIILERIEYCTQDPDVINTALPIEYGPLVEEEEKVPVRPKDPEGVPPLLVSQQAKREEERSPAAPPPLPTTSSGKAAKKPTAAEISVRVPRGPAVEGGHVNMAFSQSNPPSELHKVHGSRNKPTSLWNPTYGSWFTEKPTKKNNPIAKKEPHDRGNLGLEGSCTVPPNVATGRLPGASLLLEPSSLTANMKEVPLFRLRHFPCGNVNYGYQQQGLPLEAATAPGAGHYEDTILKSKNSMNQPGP

[6] = molecular target: Tyrosine-protein kinase Lck (Homo sapiens) (UniProt P06239); experiment: Inhibition of LCK (unknown origin) assessed as remaining activity at 1 uM relative to control
[7] = molecular target: Insulin-like growth factor 1 receptor (Homo sapiens) (UniProt P08069); experiment: Inhibition of IGF-1R (unknown origin) assessed as remaining activity at 1 uM relative to control
[8] = molecular target: Interleukin-1 receptor-associated kinase 4 (Homo sapiens) (UniProt Q9NWZ3); experiment: Inhibition of IRAK4 (unknown origin) at 1 uM
Sequence of Interleukin-1 receptor-associated kinase 4 (Homo sapiens) (Q9NWZ3 whole entry): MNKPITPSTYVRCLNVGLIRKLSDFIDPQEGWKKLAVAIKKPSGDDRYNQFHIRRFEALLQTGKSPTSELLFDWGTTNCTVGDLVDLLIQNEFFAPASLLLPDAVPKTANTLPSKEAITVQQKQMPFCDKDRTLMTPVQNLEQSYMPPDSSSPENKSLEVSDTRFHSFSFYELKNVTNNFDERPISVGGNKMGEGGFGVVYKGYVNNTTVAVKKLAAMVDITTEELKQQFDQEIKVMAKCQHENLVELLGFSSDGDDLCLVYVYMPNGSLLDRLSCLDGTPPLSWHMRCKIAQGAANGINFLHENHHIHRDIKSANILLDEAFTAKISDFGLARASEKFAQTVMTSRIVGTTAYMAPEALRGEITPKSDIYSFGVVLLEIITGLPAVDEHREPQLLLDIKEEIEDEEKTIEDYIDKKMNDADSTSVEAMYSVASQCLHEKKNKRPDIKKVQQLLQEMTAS

[9] = molecular target: T1, Mitogen-activated protein kinase kinase kinase kinase 1; experiment: Inhibition of human HPK1 in human Jurkat T cells assessed as increase in anti-human CD3 stimulated IL-2 secretion preincubated for 10 mins followed by anti-human CD3 stimulation and measured after 24 hrs by ELISA; type: cell-based
[10] = molecular target: Leucine-rich repeat serine/threonine-protein kinase 2 (Homo sapiens) (UniProt Q5S007); experiment: Inhibition of LRRK2 (unknown origin) assessed as remaining activity at 1 uM relative to control
[11] = molecular target: Mitogen-activated protein kinase 10 (Homo sapiens) (UniProt P53779); experiment: Inhibition of JNK3 (unknown origin) assessed as remaining activity at 1 uM relative to control
[12] = molecular target: Tyrosine-protein kinase receptor UFO (Homo sapiens) (UniProt P30530); experiment: Inhibition of AXL (unknown origin) assessed as remaining activity at 1 uM relative to control
[13] = molecular target: Focal adhesion kinase 1 (Homo sapiens) (UniProt Q05397); experiment: Inhibition of FAK (unknown origin) assessed as remaining activity at 1 uM relative to control
[14] = molecular target: Mitogen-activated protein kinase 8 (Homo sapiens) (UniProt P45983); experiment: Inhibition of JNK1 (unknown origin) assessed as remaining activity at 1 uM relative to control
[15] = molecular target: Tyrosine-protein kinase JAK1 (Homo sapiens) (UniProt P23458); experiment: Inhibition of JAK1 (unknown origin) assessed as remaining activity at 1 uM relative to control
[16] = molecular target: Tyrosine-protein kinase BTK (Homo sapiens) (UniProt Q06187); experiment: Inhibition of BTK (unknown origin) assessed as remaining activity at 1 uM relative to control
[17] = molecular target: Interleukin-1 receptor-associated kinase 4 (Homo sapiens) (UniProt Q9NWZ3); experiment: Inhibition of IRAK4 (unknown origin) assessed as remaining activity at 1 uM relative to control
[18] = molecular target: Leucine-rich repeat serine/threonine-protein kinase 2 (Homo sapiens) (UniProt Q5S007); experiment: Inhibition of LRRK2 (unknown origin) at 1 uM
[19] = molecular target: Serine/threonine-protein kinase PAK 4 (Homo sapiens) (UniProt O96013); experiment: Inhibition of PAK4 (unknown origin) assessed as remaining activity at 1 uM relative to control
[20] = molecular target: Mitogen-activated protein kinase 9 (Homo sapiens) (UniProt P45984); experiment: Inhibition of JNK2 (unknown origin) assessed as remaining activity at 1 uM relative to control
Sequence of Mitogen-activated protein kinase 9 (Homo sapiens) (P45984 whole entry, looked up): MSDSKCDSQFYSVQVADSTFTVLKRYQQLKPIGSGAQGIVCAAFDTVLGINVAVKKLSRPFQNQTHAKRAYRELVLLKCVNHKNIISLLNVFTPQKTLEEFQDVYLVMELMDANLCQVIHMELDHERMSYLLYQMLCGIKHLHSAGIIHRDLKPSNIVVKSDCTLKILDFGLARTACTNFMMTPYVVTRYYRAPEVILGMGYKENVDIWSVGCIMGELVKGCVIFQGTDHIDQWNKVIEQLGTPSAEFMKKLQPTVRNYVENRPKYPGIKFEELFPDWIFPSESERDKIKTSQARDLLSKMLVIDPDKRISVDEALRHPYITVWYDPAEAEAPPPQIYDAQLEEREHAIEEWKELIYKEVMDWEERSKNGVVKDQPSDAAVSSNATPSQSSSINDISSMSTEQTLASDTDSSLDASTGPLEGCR

[21] = molecular target: Tyrosine-protein kinase JAK3 (Homo sapiens) (UniProt P52333); experiment: Inhibition of JAK3 (unknown origin) assessed as remaining activity at 1 uM relative to control
[22] = molecular target: T1, Mitogen-activated protein kinase kinase kinase kinase 1; experiment: Inhibition of human HPK1 in anti-human CD3 stimulated human Jurkat T cells assessed as inhibition of SLP76 phosphorylation preincubated for 10 mins followed by anti-human CD3 stimulation and measured after 60 mins by Western blot analysis; type: cell-based
[23] = molecular target: Tyrosine-protein kinase SYK (Homo sapiens) (UniProt P43405); experiment: Inhibition of SYK (unknown origin) assessed as remaining activity at 1 uM relative to control
[24] = molecular target: Tyrosine-protein kinase JAK2 (Homo sapiens) (UniProt O60674); experiment: Inhibition of JAK2 (unknown origin) assessed as remaining activity at 1 uM relative to control
[25] = molecular target: Tyrosine-protein kinase Fyn (Homo sapiens) (UniProt P06241); experiment: Inhibition of FYN (unknown origin) assessed as remaining activity at 1 uM relative to control
Sequence of Tyrosine-protein kinase Fyn (Homo sapiens) (P06241 2-537 limits assumed): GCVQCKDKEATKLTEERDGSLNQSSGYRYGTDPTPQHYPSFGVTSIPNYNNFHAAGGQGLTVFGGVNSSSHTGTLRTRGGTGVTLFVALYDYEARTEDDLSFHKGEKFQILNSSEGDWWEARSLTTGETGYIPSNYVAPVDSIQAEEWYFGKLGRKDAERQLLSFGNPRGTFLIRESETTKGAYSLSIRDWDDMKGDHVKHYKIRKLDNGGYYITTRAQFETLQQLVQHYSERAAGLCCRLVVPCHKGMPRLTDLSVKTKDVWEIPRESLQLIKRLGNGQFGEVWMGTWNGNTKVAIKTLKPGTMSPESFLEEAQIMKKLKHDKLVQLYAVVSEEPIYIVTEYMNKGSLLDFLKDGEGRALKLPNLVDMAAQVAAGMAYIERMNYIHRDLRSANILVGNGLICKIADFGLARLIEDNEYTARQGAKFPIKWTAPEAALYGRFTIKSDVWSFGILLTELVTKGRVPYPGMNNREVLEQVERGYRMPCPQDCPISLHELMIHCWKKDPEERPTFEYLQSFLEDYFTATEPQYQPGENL

[26] = molecular target: Tyrosine-protein kinase ABL1 (Homo sapiens) (UniProt P00519); experiment: Inhibition of ABL (unknown origin) assessed as remaining activity at 1 uM relative to control
Sequence of Tyrosine-protein kinase ABL1 (Homo sapiens) (P00519 whole entry): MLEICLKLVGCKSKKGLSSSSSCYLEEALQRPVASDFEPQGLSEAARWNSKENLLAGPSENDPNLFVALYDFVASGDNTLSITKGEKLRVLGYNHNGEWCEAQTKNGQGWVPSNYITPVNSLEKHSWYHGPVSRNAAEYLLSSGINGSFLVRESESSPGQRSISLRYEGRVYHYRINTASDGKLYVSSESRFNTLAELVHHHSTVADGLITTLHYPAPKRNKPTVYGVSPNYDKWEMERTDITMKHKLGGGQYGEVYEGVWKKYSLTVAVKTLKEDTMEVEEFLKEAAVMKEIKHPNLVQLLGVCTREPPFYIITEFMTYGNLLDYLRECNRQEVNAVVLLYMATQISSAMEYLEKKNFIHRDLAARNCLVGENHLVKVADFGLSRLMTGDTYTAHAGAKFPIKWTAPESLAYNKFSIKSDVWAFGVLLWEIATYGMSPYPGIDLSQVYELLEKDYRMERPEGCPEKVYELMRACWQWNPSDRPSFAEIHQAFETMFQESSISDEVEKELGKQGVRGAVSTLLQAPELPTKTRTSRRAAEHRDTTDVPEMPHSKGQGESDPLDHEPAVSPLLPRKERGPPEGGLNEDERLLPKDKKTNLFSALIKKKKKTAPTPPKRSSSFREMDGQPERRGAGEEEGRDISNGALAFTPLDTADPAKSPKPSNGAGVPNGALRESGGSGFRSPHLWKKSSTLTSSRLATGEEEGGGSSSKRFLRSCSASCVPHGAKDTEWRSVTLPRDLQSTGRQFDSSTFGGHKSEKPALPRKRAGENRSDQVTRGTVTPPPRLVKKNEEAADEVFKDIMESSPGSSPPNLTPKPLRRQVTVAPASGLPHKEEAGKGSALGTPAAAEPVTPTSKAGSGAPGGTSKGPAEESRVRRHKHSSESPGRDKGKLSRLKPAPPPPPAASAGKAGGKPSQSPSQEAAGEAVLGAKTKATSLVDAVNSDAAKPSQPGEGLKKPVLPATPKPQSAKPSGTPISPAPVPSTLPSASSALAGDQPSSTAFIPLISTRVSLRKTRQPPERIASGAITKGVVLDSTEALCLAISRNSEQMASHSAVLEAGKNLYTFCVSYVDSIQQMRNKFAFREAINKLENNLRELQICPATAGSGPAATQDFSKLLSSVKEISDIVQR

[27] = molecular target: Tyrosine-protein kinase ZAP-70 (Homo sapiens) (UniProt P43403); experiment: Inhibition of ZAP70 (unknown origin) assessed as remaining activity at 1 uM relative to control
[28] = molecular target: Receptor-type tyrosine-protein kinase FLT3 (Homo sapiens) (UniProt P36888); experiment: Inhibition of FLT3 (unknown origin) assessed as remaining activity at 1 uM relative to control
[29] = molecular target: Dual specificity protein kinase TTK (Homo sapiens) (UniProt P33981); experiment: Inhibition of TTK (unknown origin) assessed as remaining activity at 1 uM relative to control
[30] = molecular target: Epidermal growth factor receptor (Homo sapiens) (UniProt P00533); experiment: Inhibition of EGFR (unknown origin) assessed as remaining activity at 1 uM relative to control
[31] = molecular target: ALK tyrosine kinase receptor (Homo sapiens) (UniProt Q9UM73); experiment: Inhibition of ALK (unknown origin) assessed as remaining activity at 1 uM relative to control

IC50 [1]: 1.5 nM
SMILES: CN1CCc2ccc(Nc3nc(Nc4ccccc4S(=O)(=O)N(C)C)c4c(-c5cccnc5)c[nH]c4n3)cc2C1

IC50 [1]: 9 nM
SMILES: COc1cc2c(cc1Nc1nc(Nc3ccccc3S(=O)(=O)N(C)C)c3c(-c4cnn(C)c4)c[nH]c3n1)CN(C)CC2

IC50 [1]: 5 nM
SMILES: CN(C)S(=O)(=O)c1ccccc1Nc1nc(Nc2ccc(N3CCOCC3)cc2)nc2[nH]cc(-c3cccnc3)c12

IC50 [1]: 7.5 nM
SMILES: COc1cc2c(cc1Nc1nc(Nc3ccccc3P(C)(C)=O)c3cc[nH]c3n1)CN(C)CC2

IC50 [1]: 4 nM
SMILES: COc1cc2c(cc1Nc1nc(Nc3ccccc3S(=O)(=O)N(C)C)c3c(-c4ccoc4)c[nH]c3n1)CN(C)CC2

IC50 [1]: 1.5 nM
SMILES: COc1cc2c(cc1Nc1nc(Nc3ccccc3S(=O)(=O)N3CCCC3)c3cc[nH]c3n1)CN(C)CC2

IC50 [1]: 3 nM
SMILES: COc1cc2c(cc1Nc1nc(Nc3ccccc3S(=O)(=O)N(C)C)c3c(-c4cn[nH]c4)c[nH]c3n1)CN(C)CC2

IC50 [2]: 86 nM | IC50 [3]: 150 nM
SMILES: Cn1cc(Nc2ncc(C3=CCC[C@@H](NC(=O)c4ccccc4)C3)nc2C(N)=O)cn1

IC50 [1]: 631 nM
SMILES: COc1cc2c(cc1Nc1nc(Nc3ccccc3Cl)c3cc[nH]c3n1)CN(C)CC2

IC50 [1]: 12 nM
SMILES: COc1cc2c(cc1Nc1nc(Nc3ccccc3S(=O)(=O)N(C)C)c3c(-c4ccc(N)nc4)c[nH]c3n1)CN(C)CC2

IC50 [1]: 386 nM
SMILES: COc1cc2c(cc1Nc1nc(Nc3ccccc3C(C)(C)C)c3cc[nH]c3n1)CN(C)CC2

IC50 [1]: 84 nM
SMILES: COc1cc2c(cc1Nc1nc(Nc3ccccc3OC(C)C)c3cc[nH]c3n1)CN(C)CC2

IC50 [4]: < 5 nM
SMILES: COc1cc2c(cc1Nc1ncc(Cl)c(Nc3ccccc3P(C)(C)=O)n1)CN(C)CC2

IC50 [1]: 29.5 nM
SMILES: COc1cc2c(cc1Nc1nc(Nc3ccccc3S(=O)(=O)N(C)C)c3c(-c4cccnc4C)c[nH]c3n1)CN(C)CC2

IC50 [1]: 17.5 nM
SMILES: COc1cc2c(cc1Nc1nc(Nc3ccccc3S(=O)(=O)N3CCCCC3)c3cc[nH]c3n1)CN(C)CC2

IC50 [1]: 781 nM
SMILES: COc1cc(N2CCOCC2)ccc1Nc1nc(Nc2ccccc2S(=O)(=O)N(C)C)c2c(-c3cccnc3)c[nH]c2n1

IC50 [1]: 4.5 nM
SMILES: COc1cc2c(cc1Nc1nc(Nc3ccccc3S(=O)(=O)C(C)C)c3cc[nH]c3n1)CN(C)CC2

IC50 [1]: 349 nM
SMILES: COc1cc2c(cc1Nc1nc(Nc3ccccc3S(=O)(=O)N3CCOCC3)c3cc[nH]c3n1)CN(C)CC2

IC50 [1]: 73 nM
SMILES: CCCN(CCC)S(=O)(=O)c1ccccc1Nc1nc(Nc2cc3c(cc2OC)CCN(C)C3)nc2[nH]ccc12

IC50 [1]: 4.5 nM
SMILES: COc1cc2c(cc1Nc1nc(Nc3ccccc3S(=O)(=O)N3CCCC3)c3c(-c4cccnc4)c[nH]c3n1)CN(C)CC2

IC50 [1]: 454 nM
SMILES: COc1cc2c(cc1Nc1nc(Nc3ccccc3C)c3cc[nH]c3n1)CN(C)CC2

IC50 [1]: > 1000 nM
SMILES: COc1cc2c(cc1Nc1nc(Nc3ccccc3S(=O)(=O)N(C)C)c3c(-c4ccccc4)c[nH]c3n1)CN(C)CC2

IC50 [1]: 1 nM
SMILES: COc1cc2c(cc1Nc1nc(Nc3ccccc3S(=O)(=O)N3CCC3)c3cc[nH]c3n1)CN(C)CC2

IC50 [1]: 97.5 nM
SMILES: COc1ccc(CN(C)C)cc1Nc1nc(Nc2ccccc2S(=O)(=O)N(C)C)c2c(-c3cccnc3)c[nH]c2n1

IC50 [1]: 45 nM
SMILES: COc1cc2c(cc1Nc1nc(Nc3ccccc3S(=O)(=O)N3CCC3)c3c(-c4cccnc4)c[nH]c3n1)CN(C)CC2

IC50 [1]: 127 nM
SMILES: COc1cc2c(cc1Nc1nc(Nc3ccccc3OC)c3cc[nH]c3n1)CN(C)CC2

IC50 [1]: 356 nM
SMILES: COc1cc2c(cc1Nc1nc(Nc3ccccc3S(=O)(=O)N3CCC(C)(C)CC3)c3cc[nH]c3n1)CN(C)CC2

IC50 [1]: 313 nM
SMILES: COc1cc2c(cc1Nc1nc(Nc3ccccc3)c3cc[nH]c3n1)CN(C)CC2

IC50 [1]: 12 nM
SMILES: COc1cc2c(cc1Nc1nc(Nc3ccccc3S(=O)(=O)N(C)C)c3c(-c4cccnc4)c[nH]c3n1)CN(C(C)C)CC2

IC50 [1]: 12.5 nM
SMILES: COc1cc2c(cc1Nc1nc(Nc3ccccc3S(=O)(=O)N3CC(C)(C)C3)c3cc[nH]c3n1)CN(C)CC2

IC50 [1]: 14 nM
SMILES: COc1cc2c(cc1Nc1nc(Nc3ccccc3S(=O)(=O)N(C)C)c3c(-c4cnccc4C)c[nH]c3n1)CN(C)CC2

IC50 [1]: 4.5 nM
SMILES: COc1cc(Nc2nc(Nc3ccccc3S(=O)(=O)N(C)C)c3c(-c4cccnc4)c[nH]c3n2)ccc1N1CCOCC1

IC50 [1]: 2.5 nM
SMILES: COc1cc2c(cc1Nc1nc(Nc3ccccc3S(=O)(=O)N(C)C)c3cc[nH]c3n1)CN(C)CC2

IC50 [1]: 3.5 nM
SMILES: COc1cc2c(cc1Nc1nc(Nc3ccccc3S(=O)(=O)N(C)C)c3c(-c4c[nH]nc4C)c[nH]c3n1)CN(C)CC2

IC50 [1]: 9 nM
SMILES: COc1cc2c(cc1Nc1nc(Nc3ccccc3S(=O)(=O)N(C)C)c3c(-c4ccn(C)c(=O)c4)c[nH]c3n1)CN(C)CC2

IC50 [1]: 640 nM
SMILES: COc1cc2c(cc1Nc1nc(Nc3ccccc3F)c3cc[nH]c3n1)CN(C)CC2

IC50 [1]: 9.5 nM
SMILES: COc1cc2c(cc1Nc1nc(Nc3ccccc3S(=O)(=O)N(C)C)c3c(-c4ccncc4)c[nH]c3n1)CN(C)CC2

inhibition [5]: > 90% | Activity [6]: > 50% | Activity [7]: > 50% | inhibition [8]: > 90% | EC50 [9]: 1390 nM | Activity [10]: < 50% | Activity [11]: > 50% | Activity [12]: < 50% | Activity [13]: < 50% | Activity [14]: > 50% | Activity [15]: > 50% | Activity [16]: > 50% | Activity [17]: < 50% | IC50 [1]: 2 nM | inhibition [18]: > 90% | Activity [19]: > 50% | Activity [20]: > 50% | Activity [21]: > 50% | IC50 [22]: 1210 nM | Activity [23]: > 50% | Activity [24]: < 50% | Activity [25]: > 50% | Activity [26]: > 50% | Activity [27]: > 50% | Activity [28]: < 50% | Activity [29]: < 50% | Activity [30]: > 50% | Activity [31]: < 50%
SMILES: CN1CCc2cc(Cl)c(Nc3nc(Nc4ccccc4S(=O)(=O)N(C)C)c4c(-c5cccnc5)c[nH]c4n3)cc2C1

IC50 [1]: 7 nM
SMILES: CCN(CC)S(=O)(=O)c1ccccc1Nc1nc(Nc2cc3c(cc2OC)CCN(C)C3)nc2[nH]ccc12

IC50 [1]: 42 nM
SMILES: COc1cc2c(cc1Nc1nc(Nc3ccccc3S(=O)(=O)N(C)C)c3c(-c4c(C)noc4C)c[nH]c3n1)CN(C)CC2

IC50 [1]: 5.5 nM
SMILES: CCOc1cc(Nc2nc(Nc3ccccc3S(=O)(=O)N(C)C)c3c(-c4cccnc4)c[nH]c3n2)ccc1N1CCOCC1

IC50 [1]: 6 nM
SMILES: CN1CCc2cc(Nc3nc(Nc4ccccc4S(=O)(=O)N(C)C)c4c(-c5cccnc5)c[nH]c4n3)ccc2C1
